Values quoted from earlier work, collected in US20260232776A1, “COMBINATIONS OF DENDRITIC CELL-BASED VACCINES AND CHECKPOINT INHIBITORS” (Mayo Foundation for Medical Education and Research, priority 2023, published 2026).

Test system: p44/p42 MAPK or SAPK/JNK

SMILES: C[S+]([O-])c1ccc(-c2nc(-c3ccncc3)c(-c3ccc(F)cc3)[nH]2)cc1 (stereo not shown) [SBA203580, adezmapimod]
- activity against other MAPKs such as p44/p42 MAPK or SAPK/JNK: little activity
